This passage reports IC50 results from patent US9498483B2, “2,3,5-trisubstituted thiophene compounds and uses thereof” (priority 2010, dated 2016).

pIC50: −log10 of the molar value.

Test [1] has as its system HCV replicon I389luc-ubi-neo/NS3-3′/ET in ET (Huh-lucubineo-ET) cells. Briefly: Replicon assay (Biological Example 2), luciferase readout. Format: cell-based. The note with it: Hepatitis C virus. Put shortly: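 EC50 values come from Hill fits of % inhibition of replicon-driven firefly luciferase, relative to no-compound wells. Compounds were serially diluted (10 points, 3-fold, 0.1 nM–50 μM final, 0.5% DMSO) onto ET replicon cells and read after 48 h.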

The target in test [2] is T1, HCV polymerase (Hepatitis C virus genotype 1b, UniProt Q9WMX2).
T1 construct: (His)6 (C); made in house; host or cells: XL-1 cells (E. coli, by own knowledge)
The test can be described thus: Polymerase assay of Biological Example 1 (IC50 values of Table 3). Format: biochemical. The note with it: IC50 values of Table 3, polymerase assay of Biological Example 1; read-out: NS5B-enzyme3.

[3] abbreviates: ET cells, luciferase activity 48 hours after compound.

Turning to `O=C(O)c1sc(-c2ccccc2)cc1N1C(=O)CN(S(=O)(=O)c2ccc(N3CCN[C@H](CO)C3)nc2)C[C@H]1C1CCCCC1` [Compound 139, 3-{(R)-2-Cyclohexyl-4-[6-((S)-3-hydroxymethyl-piperazin-1-yl)-pyridine-3-sulfonyl]-6-oxo-piperazin-1-yl}-5-phenyl-thiophene-2-carboxylic acid], the pIC50 in test [1] (between 100 nM and 5.0 uM) is 5.30 to 7.00; in test [2], 9.00.
Regarding `C[C@@H]1CN(c2ccc(S(=O)(=O)N3CC(=O)N(c4cc(-c5ccccc5)sc4C(=O)O)[C@H](C4CCCCC4)C3)cn2)CCN1` [Compound 140, 3-{(R)-2-Cyclohexyl-4-[6-((R)-3-methyl-piperazin-1-yl)-pyridine-3-sulfonyl]-6-oxo-piperazin-1-yl}-5-phenyl-thiophene-2-carboxylic acid], the pIC50 in test [1] (setting [3]) is no less than 7.00; in test [2] it was 9.00.
The like results for `N[C@@H]1CCN(c2ccc(S(=O)(=O)N3CC(=O)N(c4cc(-c5ccccc5)sc4C(=O)O)[C@H](C4CCCCC4)C3)cn2)C1` [Compound 141, 3-{(R)-4-[6-((R)-3-Amino-pyrrolidin-1-yl)-pyridine-3-sulfonyl]-2-cyclohexyl-6-oxo-piperazin-1-yl}-5-phenyl-thiophene-2-carboxylic acid] were, in that order, no less than 7.00 and 8.70.
On to `N[C@H]1CCCN(c2ccc(S(=O)(=O)N3CC(=O)N(c4cc(-c5ccccc5)sc4C(=O)O)[C@H](C4CCCCC4)C3)cn2)C1` [Compound 142, 3-[(R)-4-((S)-3-Amino-3,4,5,6-tetrahydro-2H-[1,2′]bipyridinyl-5′-sulfonyl)-2-cyclohexyl-6-oxo-piperazin-1-yl]-5-phenyl-thiophene-2-carboxylic acid], for which the pIC50 in test [1] (between 100 nM and 5.0 uM) was 5.30 to 7.00; in test [2] it was 8.70.
Turning to `NCC1CCN(c2ccc(S(=O)(=O)N3CC(=O)N(c4cc(-c5ccccc5)sc4C(=O)O)[C@H](C4CCCCC4)C3)cn2)CC1` [Compound 143, 3-[(R)-4-(4-Aminomethyl-3,4,5,6-tetrahydro-2H-[1,2′]bipyridinyl-5′-sulfonyl)-2-cyclohexyl-6-oxo-piperazin-1-yl]-5-phenyl-thiophene-2-carboxylic acid], the pIC50 in test [1] (setting [3]) is no less than 7.00; in test [2] it was 8.72.
In the case of `N[C@H]1CCN(c2ccc(S(=O)(=O)N3CC(=O)N(c4cc(-c5ccccc5)sc4C(=O)O)[C@H](C4CCCCC4)C3)cn2)C1` [Compound 144, 3-{(R)-4-[6-((S)-3-Amino-pyrrolidin-1-yl)-pyridine-3-sulfonyl]-2-cyclohexyl-6-oxo-piperazin-1-yl}-5-phenyl-thiophene-2-carboxylic acid], the pIC50 is 5.30 to 7.00 in test [1] (between 100 nM and 5.0 uM); 8.70 in test [2].
`C[C@H]1CN(c2ccc(S(=O)(=O)N3CC(=O)N(c4cc(-c5ccccc5)sc4C(=O)O)[C@H](C4CCCCC4)C3)cn2)CCN1` [Compound 145, 3-{(R)-2-Cyclohexyl-4-[6-((S)-3-methyl-piperazin-1-yl)-pyridine-3-sulfonyl]-6-oxo-piperazin-1-yl}-5-phenyl-thiophene-2-carboxylic acid]: the pIC50 in test [1] (setting [3]) is no less than 7.00; in test [2] it was 9.00.
The like results for `CC(C)(C)OC(=O)N[C@@H]1CCN(c2ccc(S(=O)(=O)N3CC(=O)N(c4cc(-c5ccccc5)sc4C(=O)O)[C@H](C4CCCCC4)C3)cn2)C1` [Compound 146, 3-{(R)-4-[6-((R)-3-tert-Butoxycarbonyl-amino-pyrrolidin-1-yl)-pyridine-3-sulfonyl]-2-cyclohexyl-6-oxo-piperazin-1-yl}-5-phenyl-thiophene-2-carboxylic acid] were, in that order, no less than 7.00 and 8.70.
In the same order, the values of `CN(C)C1CCN(c2ccc(S(=O)(=O)N3CC(=O)N(c4cc(-c5ccccc5)sc4C(=O)O)[C@H](C4CCCCC4)C3)cn2)CC1` [Compound 147, 3-[(R)-2-Cyclohexyl-4-(4-dimethylamino-3,4,5,6-tetrahydro-2H-[1,2′]bipyridinyl-5′-sulfonyl)-6-oxo-piperazin-1-yl]-5-phenyl-thiophene-2-carboxylic acid] are no less than 7.00 and 9.00.
Regarding `CCN1CCN(c2ccc(S(=O)(=O)N3CC(=O)N(c4cc(-c5ccccc5)sc4C(=O)O)[C@H](C4CCCCC4)C3)cn2)CC1` [Compound 148, 3-{(R)-2-Cyclohexyl-4-[6-(4-ethyl-piperazin-1-yl)-pyridine-3-sulfonyl]-6-oxo-piperazin-1-yl}-5-phenyl-thiophene-2-carboxylic acid], the results for the pIC50 in test [1] (setting [3]) and in test [2] were no less than 7.00 and 8.70, respectively.
In the same order, the values of `CC(C)(C)OC(=O)NCC1CCN(c2ccc(S(=O)(=O)N3CC(=O)N(c4cc(-c5ccccc5)sc4C(=O)O)[C@H](C4CCCCC4)C3)cn2)CC1` [Compound 149, 3-{(R)-4-[4-(tert-Butoxycarbonyl-amino-methyl)-3,4,5,6-tetrahydro-2H-[1,2′]bipyridinyl-5′-sulfonyl]-2-cyclohexyl-6-oxo-piperazin-1-yl}-5-phenyl-thiophene-2-carboxylic acid] are no less than 7.00 and 8.52.
For the compound `C[C@@H]1CN(c2ccc(S(=O)(=O)N3CC(=O)N(c4cc(-c5ccccc5)sc4C(=O)O)[C@H](C4CCCCC4)C3)cn2)C[C@H](C)N1` [Compound 150, 3-{(R)-2-Cyclohexyl-4-[6-((3R,5S)-3,5-dimethyl-piperazin-1-yl)-pyridine-3-sulfonyl]-6-oxo-piperazin-1-yl}-5-phenyl-thiophene-2-carboxylic acid], the values for the pIC50 in test [1] (setting [3]) and in test [2] were no less than 7.00 and 8.40, respectively.
In the same order, the values of `C[C@@H]1CN(c2ccc(S(=O)(=O)N3CC(=O)N(c4cc(-c5ccccc5)sc4C(=O)O)[C@H](C4CCCCC4)C3)cn2)CCN1C(=O)OC(C)(C)C` [Compound 151, (R)-4-{5-[(R)-4-(2-Carboxy-5-phenyl-thiophen-3-yl)-3-cyclohexyl-5-oxo-piperazine-1-sulfonyl]-pyridin-2-yl}-2-methyl-piperazine-1-carboxylic acid tert-butyl ester] are no less than 7.00 and 8.52.
In the same order, the values of `CC(C)(C)N1CCN(c2ccc(S(=O)(=O)N3CC(=O)N(c4cc(-c5ccccc5)sc4C(=O)O)[C@H](C4CCCCC4)C3)cn2)CC1` [Compound 152, 3-{(R)-4-[6-(4-tert-Butyl-piperazin-1-yl)-pyridine-3-sulfonyl]-2-cyclohexyl-6-oxo-piperazin-1-yl}-5-phenyl-thiophene-2-carboxylic acid] are no less than 7.00 and 8.52.
As for `CC1(NC(=O)OC(C)(C)C)CCN(c2ccc(S(=O)(=O)N3CC(=O)N(c4cc(-c5ccccc5)sc4C(=O)O)[C@H](C4CCCCC4)C3)cn2)CC1` [Compound 153, 3-[(R)-4-(4-tert-Butoxycarbonylamino-4-methyl-3,4,5,6-tetrahydro-2H-[1,2′]bipyridinyl-5′-sulfonyl)-2-cyclohexyl-6-oxo-piperazin-1-yl]-5-phenyl-thiophene-2-carboxylic acid], the pIC50 in test [1] (between 100 nM and 5.0 uM) was 5.30 to 7.00; in test [2], 8.40.
With `CCC1CCCN1c1ccc(S(=O)(=O)N2CC(=O)N(c3cc(-c4ccccc4)sc3C(=O)O)[C@H](C3CCCCC3)C2)cn1` (stereo partly drawn) [Compound 154, 3-{(R)-2-Cyclohexyl-4-[6-(2-ethyl-pyrrolidin-1-yl)-pyridine-3-sulfonyl]-6-oxo-piperazin-1-yl}-5-phenyl-thiophene-2-carboxylic acid], the pIC50 in test [1] (setting [3]) is no less than 7.00; in test [2], 8.52.
